PMC5412883, “An intranasally delivered peptide drug ameliorates cognitive decline in Alzheimer transgenic mice” (EMBO Molecular Medicine, 2017)
Where a SMILES comes first, the peptide text is derived from it. [ ]: non-standard residue; d: D form.

Tests used:
Neuro2a cells = experiment: Cell viability by MTT assay, peptide alone; type: cell-based, mouse; conditions: 30 μM peptide, MTT 48 h later, N = 6
Protocol: (§1) Data information: Peptide concentration is 30 μM for each peptide. Standard deviations of the mean are shown as bars for each sample (N = 6 for pure peptide and N = 12 for mixture). The statistics were done by Student's t‐test. Mouse N2a neuroblastoma cells (ATCC) were cultured in Dulbecco's modified Eagle's medium (DMEM) (HyClone, USA) supplemented with 10% fetal bovine serum (HyClone, USA). Cells were harvested with DMEM and suspended at a density of 3.5 × 10^5 cells/ml. 100 μl from each sample was plated in one well of a 96‐well CellBIND microplate (Corning, USA) and then incubated at 37°C under 5% CO2 for 24 h. Five microliters from each stock peptide (6 mM) in DMSO was diluted with 95 μl of PBS (pH 7.0) and then 900 μl of DMEM to a final concentration of 30 μM.

[1] = tested on: Aβ40 toxicity to Neuro2a cells; experiment: Attenuation of Aβ40 cytotoxicity, MTT assay; type: cell-based, mouse; conditions: Aβ40 30 μM premixed with 30 μM peptide for 24 h at room temperature; Aβ40 alone 30%; MTT 48 h later, N = 12
Protocol: as §1

Aβ40 = target: T1, Aβ40 (Homo sapiens, UniProt P05067); experiment: Inhibition of Aβ40 fibrillization (CD spectra, TEM); type: biochemical; conditions: for Aβ40 fibril formation in the presence of peptide at 1:1 ratio (kinetics of CD spectra): authors' reply in review file
T1 construct: made in house; host or cells: chemical solid-phase peptide synthesis (Fmoc-polyamide), no expression host
T1 sequence (P05067 672-711): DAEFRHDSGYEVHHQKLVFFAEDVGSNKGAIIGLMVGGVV
Protocol: (§2) The 1.4 mM stock solution of each peptide in 75% trifluoroethanol was diluted to a final concentration of 30 μM in 20 mM sodium phosphate buffer with 150 mM KCl (PBS, pH 7). Each was incubated at 25°C for designated time points and placed in a 1‐mm cell to record the CD spectra between 200 and 250 nm on a J‐715 CD spectrometer (JASCO, Japan). The band width was set to 2 nm, and the step resolution was 0.05 nm. Each sample was scanned twice and the average of these two measurements was smoothed by the Savitzky–Golay method to get the final CD spectrum.
(§3) The samples were deposited on carbon‐coated 300‐mesh copper grids, incubated for 3 min for absorption, and then washed by water. Negative staining was carried out by staining with 2% uranyl acetate for 1.5 min. After air drying, the samples were viewed using a Hitachi H‐7000 electron microscope (Hitachi, Japan).
Appendix Figure S2. Effect of the designed bipartite peptides on inhibition of A β 40 fibrillization. The peptides were dissolved in 20 mM sodium phosphate buffer with 150 mM KCl and incubated at 25 °C. Peptide concentration is 30 µM for each peptide. The CD spect ra of A β 40 (A), the Aβ 40/R 8-Aβ (25-35) mixture (1:1) (B), and the Aβ 40/DR8-Aβ (25-35) mixture (1:1) (C) were recorded at the indicated incubation times shown in (A). The spectrum change is pointed out by an arrow in (A), indicating the formation of cross-β structure in the am yloid fibrils. (D) The time course of am yloido gen es is of Aβ 40 with and without the designed peptide inhibitors .
The CD spectra were not smoothed. (A) is the same as Fi g. S1A.
(§4) (1 picture or pasted object on this page, not shown here)

[2] = CD spectra and TEM of the single peptides (conformation, self-aggregation); type: physicochemical; conditions: 30 μM peptide in 20 mM sodium phosphate buffer with 150 mM KCl (pH 7), 25°C; for amyloid fibril formation (TEM): incubation for 168 h; for conformation by CD spectra: spectra largely unchanged with incubation time
Protocol: The circular dichroism (CD) spectra were recorded at various time points as indicated. […] The CD spectra of both peptides remained largely unchanged with the incubation time.
as §2, §3
DR8-Aβ (25-35). The peptides were dissolved in 20 mM sodium phosphate b u ff e r with 150 mM KCl and incubated at 25 °C. Pept ide concentration is 30 µ M. (A-C) The CD spectra were recorded at the indicated incubation time shown in (A).(D -F) […]
formed nucleus ver y fast and β -sheet signal (negative ellipticity at 218 nm) can be seen in the beginning of i ncubation. The CD spectra were not smoothed.
as §4

| Molecule | toxicity to the N2a cells (Neuro2a cells) | cell viability with Aβ40 plus equal molar peptide [1] | Aβ40 fibril formation in the presence of peptide at 1:1 ratio (kinetics of CD spectra) (Aβ40) | inhibition effect on Aβ40 fibrillization, 1:1 mixture (Aβ40; Aβ40 30 μM and peptide 30 μM (1:1), pH 7, 25°C, CD) | amyloid fibril formation (TEM) [2] | conformation by CD spectra [2] | inhibition effect on Aβ40 fibrillization at the lowest ratio (Aβ40; Aβ40 30 μM : peptide 1:0.1) | effect on formation of Aβ40 amyloid fibrils (CD 218 nm, TEM) (Aβ40; Aβ40 30 μM mixed with peptide at 1:0.1, 1:0.2 or 1:1 molar ratio, pH 7, 25°C) |
| --- | --- | --- | --- | --- | --- | --- | --- | --- |
| CC[C@H](C)[C@H](NC(=O)[C@H](C)NC(=O)CNC(=O)[C@H](CCCCN)NC(=O)[C@H](CC(N)=O)NC(=O)[C@H](CO)NC(=O)CNC(=O)[C@@H](CCCNC(=N)N)NC(=O)[C@@H](CCCNC(=N)N)NC(=O)[C@@H](CCCNC(=N)N)NC(=O)[C@@H](CCCNC(=N)N)NC(=O)[C@@H](CCCNC(=N)N)NC(=O)[C@@H](CCCNC(=N)N)NC(=O)[C@@H](CCCNC(=N)N)NC(=O)[C@@H](CCCNC(=N)N)NC(C)=O)C(=O)N[C@H](C(=O)NCC(=O)N[C@@H](CC(C)C)C(=O)N[C@@H](CCSC)C(N)=O)[C@@H](C)CC [^DR8‐Aβ(25–35)] (Ac-[dR][dR][dR][dR][dR][dR][dR][dR]GSNKGAIIGLM-NH2) | no detectable toxicity | 70–75% | failed to formed fibrils | inhibition effect was also observed | did not form amyloid fibrils at all | random coil structure |  |  |
| Ac-RRRRRRRRGSNKGAIIGLM-NH2 [R8‐Aβ(25–35)] | no detectable toxicity | 70–75% | failed to formed fibrils |  | did not form amyloid fibrils at all | random coil structure | observed even when its concentration was ten times lower than Aβ40 | significantly delayed or decreased the formation of Aβ40 amyloid fibrils |
